Measured values published in ChEMBL document CHEMBL2157886, “Synthesis and evaluation of ¹⁸F-labeled styryltriazole and resveratrol derivatives for β-amyloid plaque imaging” (J Med Chem, 2012).
pKi: −log10 of the molar value.

How the values were obtained:
[1] = Binding affinity to amyloid beta (1-42) aggregates
Brain [2] = experiment: Ratio of drug uptake in BALB/c mouse brain after 5 mins to 30 mins; assay type: ADME, tissue-based; settings: in vivo
[3] = Displacement of [125I]TZDM from amyloid beta (1 to 42) aggregates after 3 hrs by gamma counting
Muscle tissue [4] = experiment: Drug uptake in ICR mouse muscle at 1.11 MBq, iv after 2 mins postinjection; assay type: ADME, organism-based; settings: in vivo
Muscle tissue [5] = experiment: Drug uptake in ICR mouse muscle at 1.11 MBq, iv after 30 mins postinjection; assay type: ADME, organism-based; settings: in vivo, 0.5 h
Brain [6] = experiment: Drug uptake in ICR mouse brain at 1.11 MBq, iv after 120 mins postinjection; assay type: ADME, organism-based; settings: in vivo, 2 h
[7] = Octanol-water partition coefficient, log P of the compound; assay type: physicochemical
Liver [8] = experiment: Drug uptake in ICR mouse liver at 1.11 MBq, iv after 60 mins postinjection; assay type: ADME, organism-based; settings: in vivo, 1 h
Brain [9] = experiment: Ratio of drug uptake in mouse brain after 2 mins to 30 mins; assay type: ADME, tissue-based; settings: in vivo
Femur [10] = experiment: Drug uptake in ICR mouse femur at 1.11 MBq, iv after 60 mins postinjection; assay type: ADME, organism-based; settings: in vivo, 1 h
Liver [11] = experiment: Drug uptake in ICR mouse liver at 1.11 MBq, iv after 120 mins postinjection; assay type: ADME, organism-based; settings: in vivo, 2 h
Lung [12] = experiment: Drug uptake in ICR mouse lung at 1.11 MBq, iv after 30 mins postinjection; assay type: ADME, organism-based; settings: in vivo, 0.5 h
Spleen [13] = experiment: Drug uptake in ICR mouse spleen at 1.11 MBq, iv after 120 mins postinjection; assay type: ADME, organism-based; settings: in vivo, 2 h
Heart [14] = experiment: Drug uptake in ICR mouse heart at 1.11 MBq, iv after 30 mins postinjection; assay type: ADME, organism-based; settings: in vivo, 0.5 h
Lung [15] = experiment: Drug uptake in ICR mouse lung at 1.11 MBq, iv after 2 mins postinjection; assay type: ADME, organism-based; settings: in vivo
Heart [16] = experiment: Drug uptake in ICR mouse heart at 1.11 MBq, iv after 120 mins postinjection; assay type: ADME, organism-based; settings: in vivo, 2 h
Heart [17] = experiment: Drug uptake in ICR mouse heart at 1.11 MBq, iv after 2 mins postinjection; assay type: ADME, organism-based; settings: in vivo
Kidney [18] = experiment: Drug uptake in ICR mouse kidney at 1.11 MBq, iv after 120 mins postinjection; assay type: ADME, organism-based; settings: in vivo, 2 h
Spleen [19] = experiment: Drug uptake in ICR mouse spleen at 1.11 MBq, iv after 30 mins postinjection; assay type: ADME, organism-based; settings: in vivo, 0.5 h
Blood [20] = experiment: Drug uptake in ICR mouse blood at 1.11 MBq, iv after 120 mins postinjection; assay type: ADME, organism-based; settings: in vivo, 2 h
Heart [21] = experiment: Drug uptake in ICR mouse heart at 1.11 MBq, iv after 60 mins postinjection; assay type: ADME, organism-based; settings: in vivo, 1 h
Muscle tissue [22] = experiment: Drug uptake in ICR mouse muscle at 1.11 MBq, iv after 120 mins postinjection; assay type: ADME, organism-based; settings: in vivo, 2 h
Brain [23] = experiment: Drug uptake in ICR mouse brain at 1.11 MBq, iv after 60 mins postinjection; assay type: ADME, organism-based; settings: in vivo, 1 h
Femur [24] = experiment: Drug uptake in ICR mouse femur at 1.11 MBq, iv after 120 mins postinjection; assay type: ADME, organism-based; settings: in vivo, 2 h
Spleen [25] = experiment: Drug uptake in ICR mouse spleen at 1.11 MBq, iv after 60 mins postinjection; assay type: ADME, organism-based; settings: in vivo, 1 h
Lung [26] = experiment: Drug uptake in ICR mouse lung at 1.11 MBq, iv after 60 mins postinjection; assay type: ADME, organism-based; settings: in vivo, 1 h
Kidney [27] = experiment: Drug uptake in ICR mouse kidney at 1.11 MBq, iv after 2 mins postinjection; assay type: ADME, organism-based; settings: in vivo
Blood [28] = experiment: Drug uptake in ICR mouse blood at 1.11 MBq, iv after 30 mins postinjection; assay type: ADME, organism-based; settings: in vivo, 0.5 h
Femur [29] = experiment: Drug uptake in ICR mouse femur at 1.11 MBq, iv after 2 mins postinjection; assay type: ADME, organism-based; settings: in vivo
Brain [30] = experiment: Drug uptake in ICR mouse brain at 1.11 MBq, iv after 30 mins postinjection; assay type: ADME, organism-based; settings: in vivo, 0.5 h
Brain [31] = experiment: Ratio of drug uptake in mouse brain after 2 mins to 60 mins; assay type: ADME, tissue-based; settings: in vivo
Femur [32] = experiment: Drug uptake in ICR mouse femur at 1.11 MBq, iv after 30 mins postinjection; assay type: ADME, organism-based; settings: in vivo, 0.5 h
Spleen [33] = experiment: Drug uptake in ICR mouse spleen at 1.11 MBq, iv after 2 mins postinjection; assay type: ADME, organism-based; settings: in vivo
Kidney [34] = experiment: Drug uptake in ICR mouse kidney at 1.11 MBq, iv after 60 mins postinjection; assay type: ADME, organism-based; settings: in vivo, 1 h
Lung [35] = experiment: Drug uptake in ICR mouse lung at 1.11 MBq, iv after 120 mins postinjection; assay type: ADME, organism-based; settings: in vivo, 2 h
Liver [36] = experiment: Drug uptake in ICR mouse liver at 1.11 MBq, iv after 2 mins postinjection; assay type: ADME, organism-based; settings: in vivo
Kidney [37] = experiment: Drug uptake in ICR mouse kidney at 1.11 MBq, iv after 30 mins postinjection; assay type: ADME, organism-based; settings: in vivo, 0.5 h
Brain [38] = experiment: Drug uptake in ICR mouse brain at 1.11 MBq, iv after 2 mins postinjection; assay type: ADME, organism-based; settings: in vivo
Muscle tissue [39] = experiment: Drug uptake in ICR mouse muscle at 1.11 MBq, iv after 60 mins postinjection; assay type: ADME, organism-based; settings: in vivo, 1 h
Blood [40] = experiment: Drug uptake in ICR mouse blood at 1.11 MBq, iv after 60 mins postinjection; assay type: ADME, organism-based; settings: in vivo, 1 h
Liver [41] = experiment: Drug uptake in ICR mouse liver at 1.11 MBq, iv after 30 mins postinjection; assay type: ADME, organism-based; settings: in vivo, 0.5 h
Blood [42] = experiment: Drug uptake in ICR mouse blood at 1.11 MBq, iv after 2 mins postinjection; assay type: ADME, organism-based; settings: in vivo
Brain [43] = experiment: Drug uptake in mouse brain after 2 mins; assay type: ADME, tissue-based; settings: in vivo
[44] = Partition coefficient, log P of the compound; assay type: physicochemical; settings: octanol/water
Cynomolgus monkey [45] = experiment: Drug uptake in cynomolgus monkey brain after 1.5 mins; assay type: ADME, organism-based, Macaca fascicularis; settings: in vivo, 0.025 h
Cynomolgus monkey [46] = experiment: Drug uptake in cynomolgus monkey brain after 55 mins; assay type: ADME, organism-based, Macaca fascicularis; settings: in vivo

CN(C)c1ccc(-c2nc3ccc([125I])cc3s2)cc1
pKi [1]: 8.72

CNc1ccc(-c2cn3c(n2)sc2cc(OC)ccc23)cc1
pKi [1]: 8.46

COc1ccc2c(c1)sc1nc(-c3ccc(N[11CH3])cc3)cn12
Ratio (Brain [2]): 9.1

COc1cc(/C=C/c2ccc(F)cc2)cc(OC)c1
pKi [3]: 8.31

[11CH3]Nc1ccc(-c2nc3ccc(O)cc3s2)cn1
pKi [1]: 7.71

CNc1ccc(-c2cn3c(n2)sc2cc(OCC[18F])ccc23)cc1
Ratio (Brain [2]): 5.6

COc1cc(/C=C/c2ccc(OCCC[18F])cc2)cc(OC)c1
Drug uptake (Muscle tissue [4]): 3.67 % ID/g | Drug uptake (Muscle tissue [5]): 1.27 % ID/g | Drug uptake (Brain [6]): 1 % ID/g | logP [7]: 2.84 | Drug uptake (Liver [8]): 2.47 % ID/g | Ratio (Brain [9]): 1.6 | Drug uptake (Femur [10]): 9.73 % ID/g | Drug uptake (Liver [11]): 4.47 % ID/g | Drug uptake (Lung [12]): 1.72 % ID/g | Drug uptake (Spleen [13]): 0.97 % ID/g | Drug uptake (Heart [14]): 1.35 % ID/g | Drug uptake (Lung [15]): 8.17 % ID/g | Drug uptake (Heart [16]): 0.61 % ID/g | Drug uptake (Heart [17]): 7.22 % ID/g | Drug uptake (Kidney [18]): 1.65 % ID/g | Drug uptake (Spleen [19]): 1.23 % ID/g | Drug uptake (Blood [20]): 0.38 % ID/g | Drug uptake (Heart [21]): 0.56 % ID/g | Drug uptake (Muscle tissue [22]): 1.07 % ID/g | Drug uptake (Brain [23]): 1.13 % ID/g | Drug uptake (Femur [24]): 16.15 % ID/g | Drug uptake (Spleen [25]): 0.84 % ID/g | Drug uptake (Lung [26]): 1.08 % ID/g | Drug uptake (Kidney [27]): 10.46 % ID/g | Drug uptake (Blood [28]): 0.98 % ID/g | Drug uptake (Femur [29]): 1.88 % ID/g | Drug uptake (Brain [30]): 2.09 % ID/g | Ratio (Brain [31]): 2.9 | Drug uptake (Femur [32]): 5.24 % ID/g | Drug uptake (Spleen [33]): 3.15 % ID/g | Drug uptake (Kidney [34]): 2.76 % ID/g | Drug uptake (Lung [35]): 1.16 % ID/g | Drug uptake (Liver [36]): 14.35 % ID/g | Drug uptake (Kidney [37]): 2.86 % ID/g | Drug uptake (Brain [38]): 3.26 % ID/g | Drug uptake (Muscle tissue [39]): 0.74 % ID/g | Drug uptake (Blood [40]): 0.43 % ID/g | Drug uptake (Liver [41]): 5.99 % ID/g | Drug uptake (Blood [42]): 2.08 % ID/g

CN(C)c1ccc(/C=C/c2cn(CC[18F])nn2)cc1
Drug uptake (Muscle tissue [4]): 2.44 % ID/g | Drug uptake (Muscle tissue [5]): 0.74 % ID/g | Drug uptake (Brain [6]): 0.48 % ID/g | logP [7]: 1.74 | Drug uptake (Liver [8]): 3.47 % ID/g | Ratio (Brain [9]): 7.9 | Drug uptake (Femur [10]): 0.94 % ID/g | Drug uptake (Liver [11]): 3.47 % ID/g | Drug uptake (Lung [12]): 1.75 % ID/g | Drug uptake (Spleen [13]): 0.49 % ID/g | Drug uptake (Heart [14]): 1.32 % ID/g | Drug uptake (Lung [15]): 5.73 % ID/g | Drug uptake (Heart [16]): 0.71 % ID/g | Drug uptake (Heart [17]): 3.8 % ID/g | Drug uptake (Kidney [18]): 1.86 % ID/g | Drug uptake (Spleen [19]): 0.85 % ID/g | Drug uptake (Blood [20]): 0.98 % ID/g | Drug uptake (Heart [21]): 0.81 % ID/g | Drug uptake (Muscle tissue [22]): 0.4 % ID/g | Drug uptake (Brain [23]): 0.52 % ID/g | Drug uptake (Femur [24]): 1.54 % ID/g | Drug uptake (Spleen [25]): 0.6 % ID/g | Drug uptake (Lung [26]): 1.04 % ID/g | Drug uptake (Kidney [27]): 7.32 % ID/g | Drug uptake (Blood [28]): 2.16 % ID/g | Drug uptake (Femur [29]): 1.49 % ID/g | Drug uptake (Brain [30]): 0.68 % ID/g | Ratio (Brain [31]): 10.3 | Drug uptake (Femur [32]): 0.7 % ID/g | Drug uptake (Spleen [33]): 2.36 % ID/g | Drug uptake (Kidney [34]): 3.7 % ID/g | Drug uptake (Lung [35]): 0.76 % ID/g | Drug uptake (Liver [36]): 12.5 % ID/g | Drug uptake (Kidney [37]): 7.32 % ID/g | Drug uptake (Brain [38]): 5.38 % ID/g | Drug uptake (Muscle tissue [39]): 0.51 % ID/g | Drug uptake (Blood [40]): 1.27 % ID/g | Drug uptake (Liver [41]): 7.59 % ID/g | Drug uptake (Blood [42]): 3.35 % ID/g

COc1cc(/C=C/c2ccc(OCCF)cc2)cc(OC)c1
pKi [3]: 9.13

COc1cc(/C=C/c2ccc(OCCCF)cc2)cc(OC)c1
pKi [3]: 9.31

CN(C)c1ccc(-c2nc3ccc([125I])cc3o2)cc1
pKi [1]: 9.10

CN(C)c1ccc(/C=C/c2cn(CCF)nn2)cc1
pKi [3]: 7.89

Oc1cc(O)cc(/C=C/c2ccc(F)cc2)c1
pKi [3]: 7.40

CN(C)c1ccc(-c2cn3cc([125I])ccc3n2)cc1
Drug uptake (Brain [43]): 2.88 %ID

CNc1ccc(/C=C/c2ccc(OCCOCCOCC[18F])cc2)cc1 [FLORBETABEN F18]
Ratio (Brain [9]): 4.89 | pKi [1]: 8.65 | logP [44]: 2.41 | Drug uptake (Brain [43]): 7.77 % ID/g

CNc1ccc(/C=C/c2ccc(OCCOCCOCC[18F])nc2)cc1 [FLORBETAPIR F 18]
pKi [1]: 8.54 | Ratio (Brain [31]): 3.9 | logP [44]: 2.41

CNc1ccc(-c2cc3cc(O)ccc3o2)c([18F])n1 [FLUTAFURANOL F 18]
Drug uptake (Cynomolgus monkey [45]): 5.2 %ID | Drug uptake (Cynomolgus monkey [46]): 0.5 %ID

CNc1ccc(-c2nc3ccc(O)cc3s2)cc1[18F] [FLUTEMETAMOL F 18]
pKi [1]: 9.13
